From patent publication US8853208B2, “Amino alcohol-substituted arylthienopyrimidinones, process for their preparation and their use as medicaments” (Sanofi, priority 2006, dated 2014)

Target: T1, human MCH receptor (Homo sapiens, UniProt Q99705)
T1 construct: expressed in transfected cells
Experiment: Functional IC50 of MCH1R antagonists: cellular calcium flux (FLIPR) after MCH in recombinant HEK293 cells
Format: cell-based
Conditions: calcium flux after addition of agonist (MCH), recombinant HEK293 cell line expressing the human MCH receptor
Excerpt: Influence on the MCH receptor in vitro; determination of functional IC50 values of MCH1R antagonists
Cloning of the cDNA for the human MCH receptor, preparation of a recombinant HEK293 cell line which expresses the human MCH receptor, and functional measurements with the recombinant cell line took place in analogy to the description by Audinot et al. (J. Biol. Chem. 276, 13554-13562, 2001). A difference from the reference was, however, the use of the plasmid pEAK8 from EDGE Biosystems (USA) for the construction of the expression vector. The host used for the transfection was a transformed HEK cell line named “PEAK Stable Cells” (likewise from EDGE Biosystems). Functional measurements of the cellular calcium flux after addition of agonist (MCH) in the presence of ligand of the invention took place with the aid of the FLIPR apparatus from Molecular Devices (USA), using protocols of the apparatus manufacturer. The compounds of the invention show a significant inhibition (>30%) of the signal induced by the agonist at a concentration of 100 μM, preferably at 10 μM, particularly preferably at 1 μM, very particularly preferably at 100 nM and even more particularly preferably at 10 nM. Besides the functional activity it is also possible to determine the affinity for the MCH1R according to Audinot et al. (Br. J. Pharmacol. 2001, 133, 371-378).

T1 sequence (Q99705 whole entry): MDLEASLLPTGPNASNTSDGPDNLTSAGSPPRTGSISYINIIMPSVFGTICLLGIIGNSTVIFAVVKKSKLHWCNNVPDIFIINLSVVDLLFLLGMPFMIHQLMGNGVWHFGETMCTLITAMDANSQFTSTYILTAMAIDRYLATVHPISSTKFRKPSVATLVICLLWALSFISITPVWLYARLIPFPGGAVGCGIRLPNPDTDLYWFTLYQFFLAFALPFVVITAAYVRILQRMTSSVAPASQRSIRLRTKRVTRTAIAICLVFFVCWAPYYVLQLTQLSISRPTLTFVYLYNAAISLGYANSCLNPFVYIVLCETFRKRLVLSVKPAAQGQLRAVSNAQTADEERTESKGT

Question: `CCC(O)CCc1cc2ncn(-c3ccc(O[C@H]4C[C@H]5CC[C@@H](C4)N5C)c(C)c3)c(=O)c2s1` (some centres unmarked) [Example 27] was tested. Which IC50 did it give?
Answer: 0.14 µM

Question: `COc1cc(-n2cnc3cc(C#CC(C)O)sc3c2=O)ccc1O[C@H]1C[C@H]2CC[C@@H](C1)N2C` (some centres unmarked) [Example 58] was tested. Which IC50 did it give?
Answer: 0.34 µM

Question: Which IC50 does the source give for `CC(O)C#Cc1cc2ncn(-c3ccc(O[C@H]4C[C@H]5CC[C@@H](C4)N5C)cc3)c(=O)c2s1` (some centres unmarked) [Example 50] here?
Answer: 0.24 µM

Question: For `CN1[C@@H]2CC[C@H]1C[C@@H](Oc1ccc(-n3cnc4cc(CCc5ccco5)sc4c3=O)cc1)C2` [Example 171, 6-(2-Furan-2-ylethyl)-3-[4-((1S,3R,5R)-8-methyl-8-azabicyclo[3.2.1]oct-3-yloxy)phenyl]-3H-thieno[3,2-d]pyrimidin-4-one], which IC50 is on record?
Answer: 0.21 µM

Question: With `CN1[C@@H]2CC[C@H]1C[C@@H](Oc1ccc(-n3cnc4cc(CC(O)C5CCC5)sc4c3=O)cc1)C2` (some centres unmarked) [Example 166] as the compound, how does the IC50 read?
Answer: 1.09 µM

Question: Which IC50 does the source give for `COCCCc1cc2ncn(-c3ccc(O[C@H]4C[C@H]5CC[C@@H](C4)N5C)c(Cl)c3)c(=O)c2s1` [Example 23] here?
Answer: 0.53 µM

Question: With `COCCCc1cc2ncn(-c3ccc(O[C@H]4C[C@H]5CC[C@@H](C4)N5C)c(C)c3)c(=O)c2s1` [Example 22] as the compound, how does the IC50 read?
Answer: 0.4 µM

Question: How did the IC50 turn out when `CN1[C@@H]2CC[C@H]1C[C@@H](Oc1ccc(-n3cnc4cc(CCC5(O)CCCC5)sc4c3=O)cc1)C2` [Example 11, 6-[2-(1-Hydroxycyclopentyl)ethyl]-3-[4-((1R,3R,5S)-8-methyl-8-azabicyclo[3.2.1]oct-3-yloxy)phenyl]-3H-thieno[3,2-d]pyrimidin-4-one] was run?
Answer: 1.29 µM

Question: With `CN1[C@@H]2CC[C@H]1C[C@@H](Oc1ccc(-n3cnc4cc(C#CC5CC5)sc4c3=O)cc1)C2` [Example 62] as the compound, how does the IC50 read?
Answer: 0.1 µM

Question: `CN1[C@@H]2CC[C@H]1C[C@@H](Oc1ccc(-n3cnc4cc(C(=O)N5CCCCC5)sc4c3=O)cc1)C2` [Example 84] was tested. Which IC50 did it give?
Answer: 13 µM

Question: How did the IC50 turn out when `COc1cc(-n2cnc3cc(C#CC4CC4)sc3c2=O)ccc1OCCN1CCCC1` [Example 42, 6-Cyclopropylethynyl-3-[3-methoxy-4-(2-pyrrolidin-1-ylethoxy)phenyl]-3H-thieno[3,2-d]-pyrimidin-4-one] was run?
Answer: 0.11 µM

Question: Which IC50 does the source give for `O=c1c2sc(C#CC3CC3)cc2ncn1-c1ccc(OCCN2CCCC2)c(F)c1` [Example 69] here?
Answer: 0.2 µM

Question: Which IC50 does the source give for `CCC(O)CCc1cc2ncn(-c3ccc(OC4C[C@H]5CC[C@@H](C4)N5C)c(CCCO)c3)c(=O)c2s1` (some centres unmarked) [Example 190] here?
Answer: 1.35 µM

Question: How did the IC50 turn out when `CN1[C@@H]2CC[C@H]1C[C@@H](Oc1ccc(-n3cnc4cc(CC(O)c5ccco5)sc4c3=O)cc1)C2` (some centres unmarked) [Example 169] was run?
Answer: 0.29 µM

Question: `CC(C)N(C)C(=O)c1cc2ncn(-c3ccc(O[C@H]4C[C@H]5CC[C@@H](C4)N5C)cc3)c(=O)c2s1` [Example 82] was tested. Which IC50 did it give?
Answer: 6.88 µM

Question: Which IC50 does the source give for `CN1[C@@H]2CC[C@H]1C[C@@H](Oc1ccc(-n3cnc4cc(C(O)CC(C)(C)C)sc4c3=O)cc1)C2` (some centres unmarked) [Example 135] here?
Answer: 2.25 µM

Question: `CCC(O)C#Cc1cc2ncn(-c3ccc(OC4C[C@H]5CC[C@@H](C4)N5C)c(CCC(O)CC)c3)c(=O)c2s1` (some centres unmarked) [Example 178] was tested. Which IC50 did it give?
Answer: 1.27 µM

Question: `CN1[C@@H]2CC[C@H]1CC(Oc1ccc(-n3cnc4cc(N5C[C@H]6CCCN6C5=O)sc4c3=O)cc1)C2` (some centres unmarked) [Example 77] was tested. Which IC50 did it give?
Answer: 9.65 µM

Question: `CN1[C@@H]2CC[C@H]1C[C@@H](Oc1ccc(-n3cnc4cc(C(O)C5CCCC5)sc4c3=O)cc1)C2` (stereo partly drawn) [Example 121, 6-(Cyclopentylhydroxymethyl)-3-[4-((1S,3R,5R)-8-methyl-8-azabicyclo[3.2.1]oct-3-yloxy)phenyl]-3H-thieno[3,2-d]pyrimidin-4-one] was tested. Which IC50 did it give?
Answer: 0.75 µM

Question: `CCC(C)(O)CCc1cc2ncn(-c3ccc(O[C@H]4C[C@H]5CC[C@@H](C4)N5C)c(Cl)c3)c(=O)c2s1` (some centres unmarked) [Example 20] was tested. Which IC50 did it give?
Answer: 1.03 µM

Question: `CN(C)CCOc1ccc(-n2cnc3cc(COCC4CCC4)sc3c2=O)cc1` [Example 93, 6-Cyclobutylmethoxymethyl-3-[4 (2-dimethylaminoethoxy)phenyl]-3H-thieno[3,2-d]pyrimidin-4-one] was tested. Which IC50 did it give?
Answer: 0.93 µM

Question: Which IC50 does the source give for `CN1[C@@H]2CC[C@H]1CC(Oc1ccc(-n3cnc4cc(C5=CCOCC5)sc4c3=O)cc1)C2` (some centres unmarked) [Example 142] here?
Answer: 2.59 µM

Question: For `COC(C)(C)C#Cc1cc2ncn(-c3ccc(O[C@H]4C[C@H]5CC[C@@H](C4)N5C)cc3)c(=O)c2s1` [Example 56], which IC50 is on record?
Answer: 0.84 µM

Question: How did the IC50 turn out when `CCCCC(O)c1cc2ncn(-c3ccc(O[C@H]4C[C@H]5CC[C@@H](C4)N5C)cc3)c(=O)c2s1` (some centres unmarked) [Example 127] was run?
Answer: 1 µM

Question: With `CN1[C@@H]2CC[C@H]1C[C@@H](Oc1ccc(-n3cnc4cc(CCC5CC5)sc4c3=O)cc1)C2` [Example 7] as the compound, how does the IC50 read?
Answer: 0.94 µM

Question: How did the IC50 turn out when `CCCCC(=O)c1cc2ncn(-c3ccc(O[C@H]4C[C@H]5CC[C@@H](C4)N5C)cc3)c(=O)c2s1` [Example 114] was run?
Answer: 1.86 µM

Question: With `Cc1cc(-n2cnc3cc(C#CC(C)O)sc3c2=O)ccc1O[C@H]1C[C@H]2CC[C@@H](C1)N2C` (some centres unmarked) [Example 57] as the compound, how does the IC50 read?
Answer: 0.12 µM

Question: Which IC50 does the source give for `CS(=O)(=O)CCN1[C@@H]2CC[C@H]1C[C@@H](Oc1ccc(-n3cnc4cc(C#CC5CC5)sc4c3=O)cc1)C2` [Example 63] here?
Answer: 0.56 µM

Question: How did the IC50 turn out when `CCc1cc(-n2cnc3cc(C#CC(O)CC)sc3c2=O)ccc1O[C@H]1C[C@H]2CC[C@@H](C1)N2C` (some centres unmarked) [Example 181] was run?
Answer: 0.21 µM
